Tested on: Jurkat T cells
Experiment: mRNA sequencing of activated Jurkat T cells
Assay type: cell-based, human
Details: P+I

Sequence: PEITVTPPTP [CABIN1-L-1-2]
- ARHGEF6 FPKM: 27.254 FPKM
- ASAP1 FPKM: 9.052 FPKM
- ATG14 FPKM: 11.252 FPKM
- ATP2B4 FPKM: 10.46 FPKM
- ATXN1 FPKM: 2.083 FPKM
- BACH2 FPKM: 36.118 FPKM
- BAI2 FPKM: 1.079 FPKM
- BAIAP2-AS1 FPKM: 2.144 FPKM
- BATF3 FPKM: 45.085 FPKM
- BHLHE40 FPKM: 9.368 FPKM
- BTG1 FPKM: 23.454 FPKM
- C1QL1 FPKM: 0.756 FPKM
- C1orf233 FPKM: 0.674 FPKM
- C3 FPKM: 1.329 FPKM
- C9orf9 FPKM: 6.009 FPKM
- C10orf54 FPKM: 0.487 FPKM
- C16orf46 FPKM: 3.705 FPKM
- CASC15 FPKM: 2.572 FPKM
- CBX4 FPKM: 11.578 FPKM
- CBX6 FPKM: 65.604 FPKM
- CCDC64 FPKM: 11.039 FPKM
- CCDC71L FPKM: 16.319 FPKM
- CCL1 FPKM: 0.415 FPKM
- CCL3L1 FPKM: 0.079 FPKM
- CCL4 FPKM: 4.062 FPKM
- CCL4L1 FPKM: 0.328 FPKM
- CCL4L2 FPKM: 0.328 FPKM
- CCND2 FPKM: 0.99 FPKM
- CD1A FPKM: 4.51 FPKM
- CD1C FPKM: 2.59 FPKM
- CD1D FPKM: 3.093 FPKM
- CD27-AS1 FPKM: 4.613 FPKM
- CD27 FPKM: 3.4 FPKM
- CD55 FPKM: 12.082 FPKM
- CD69 FPKM: 121.846 FPKM
- CD83 FPKM: 41.173 FPKM
- CDCA7 FPKM: 21.851 FPKM
- CDT1 FPKM: 11.831 FPKM
- CFD FPKM: 1.22 FPKM
- CHI3L2 FPKM: 51.627 FPKM
- CHRNA9 FPKM: 2.572 FPKM
- CLEC2B FPKM: 54.119 FPKM
- CNR2 FPKM: 0.552 FPKM
- CORO2A FPKM: 1.623 FPKM
- CRIM1 FPKM: 0.333 FPKM
- CRTAM FPKM: 9.51 FPKM
- CSRNP1 FPKM: 23.093 FPKM
- CST7 FPKM: 3.175 FPKM
- CTDSPL FPKM: 1.836 FPKM
- CTTN FPKM: 15.629 FPKM
- CXCL3 FPKM: 7.007 FPKM
- CXCL9 FPKM: 7.221 FPKM
- CXCL10 FPKM: 6.288 FPKM
- CXCR3 FPKM: 1.803 FPKM
- CYB5RL FPKM: 1.449 FPKM
- DFNA5 FPKM: 9.395 FPKM
- DHFR FPKM: 6.668 FPKM
- DNAJB11 FPKM: 109.967 FPKM
- DNAJC1 FPKM: 13.844 FPKM
- DNPEP FPKM: 43.482 FPKM
- DOK2 FPKM: 27.542 FPKM
- DPY19L2P2 FPKM: 2.643 FPKM
- DPYSL2 FPKM: 9.177 FPKM
- DTX3L FPKM: 48.261 FPKM
- DUSP2 FPKM: 97.06 FPKM
- DUSP5 FPKM: 157.077 FPKM
- E2F1 FPKM: 8.062 FPKM
- E2F2 FPKM: 3.419 FPKM
- EIF2AK3 FPKM: 9.816 FPKM
- ENC1 FPKM: 9.268 FPKM
- ENHO FPKM: 1.223 FPKM
- ENPP1 FPKM: 51.27 FPKM
- EPAS1 FPKM: 4.197 FPKM
- EPHA3 FPKM: 2.536 FPKM
- ERO1LB FPKM: 4.345 FPKM
- ETV5 FPKM: 13.264 FPKM
- EVI2A FPKM: 10.047 FPKM
- FAM46C FPKM: 5.693 FPKM
- FAM111B FPKM: 4.22 FPKM
- FASLG FPKM: 1.715 FPKM
- FBXO34 FPKM: 18.386 FPKM
- FMNL2 FPKM: 3.019 FPKM
- FOS FPKM: 4.53 FPKM
- FOXO1 FPKM: 3.736 FPKM
- FST FPKM: 6.872 FPKM
- FURIN FPKM: 29.008 FPKM
- FYB FPKM: 10.258 FPKM
- GAMT FPKM: 11.98 FPKM
- GBP1 FPKM: 87.487 FPKM
- GBP2 FPKM: 38.881 FPKM
- GBP3 FPKM: 68.757 FPKM
- GBP4 FPKM: 9.209 FPKM
- GBP5 FPKM: 262.945 FPKM
- GDPD5 FPKM: 39.139 FPKM
- GEM FPKM: 2.963 FPKM
- GINS2 FPKM: 16.516 FPKM
- GLIPR2 FPKM: 11.773 FPKM
- GNAQ FPKM: 17.078 FPKM
- GNG2 FPKM: 17.754 FPKM
- GPR3 FPKM: 9.964 FPKM

Source: patent publication US20240376163A1, “PEPTIDE FOR INHIBITING CALCINEURIN AND USE THEREOF” (Seoul National University R&DB Foundation, priority 2023, published 2024)
